Source: patent publication US11407729B2, “Quinoline and quinazoline compounds and methods of use thereof” (Stingray Therapeutics, Inc., priority 2019, dated 2022)
Structures can show the parent of a compound that is named as a salt.

The molecules below were run against T1, ENPP1 protein (Homo sapiens, UniProt P22413) (assay: ENPP1 Inhibition Assay). Conditions: substrate Thymidine 5′-monophosphate p-nitrophenol ester; 37° C. for 45 minutes; absorbance at 405 nm.
T1 sequence (P22413 1-925): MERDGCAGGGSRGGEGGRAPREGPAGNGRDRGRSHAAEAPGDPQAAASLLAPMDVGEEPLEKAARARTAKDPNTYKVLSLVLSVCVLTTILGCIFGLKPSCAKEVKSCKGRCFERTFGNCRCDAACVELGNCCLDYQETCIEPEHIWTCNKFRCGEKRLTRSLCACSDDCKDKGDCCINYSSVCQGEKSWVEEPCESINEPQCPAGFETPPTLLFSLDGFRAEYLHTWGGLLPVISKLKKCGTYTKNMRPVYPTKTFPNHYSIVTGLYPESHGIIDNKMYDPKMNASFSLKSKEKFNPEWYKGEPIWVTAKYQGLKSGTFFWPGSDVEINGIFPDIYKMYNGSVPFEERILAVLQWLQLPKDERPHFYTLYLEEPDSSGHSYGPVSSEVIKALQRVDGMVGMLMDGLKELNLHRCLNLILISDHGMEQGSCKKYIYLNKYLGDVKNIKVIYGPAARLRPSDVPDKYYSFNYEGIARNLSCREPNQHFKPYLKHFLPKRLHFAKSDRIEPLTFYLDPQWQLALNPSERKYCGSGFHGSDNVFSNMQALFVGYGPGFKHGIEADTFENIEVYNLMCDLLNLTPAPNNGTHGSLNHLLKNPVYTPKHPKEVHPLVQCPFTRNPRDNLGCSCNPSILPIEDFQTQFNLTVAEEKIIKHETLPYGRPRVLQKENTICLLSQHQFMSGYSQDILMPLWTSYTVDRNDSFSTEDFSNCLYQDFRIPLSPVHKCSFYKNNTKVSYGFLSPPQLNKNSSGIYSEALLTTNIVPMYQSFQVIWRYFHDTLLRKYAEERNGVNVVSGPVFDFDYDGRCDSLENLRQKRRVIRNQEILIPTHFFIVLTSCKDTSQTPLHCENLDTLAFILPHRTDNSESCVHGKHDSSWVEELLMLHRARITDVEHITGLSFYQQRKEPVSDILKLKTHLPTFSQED
Format: biochemical
Design: purchased R&D 6136-EN-010
Procedure: 1. ENPP1 Inhibition Assay
An eight point serial dilution of drugs was prepared in 10× in assay buffer with the final assay concentrations starting at 10 μM, 3 μM, 1 μM, 0.3 μM . . . 0 μM. A dilution of DMSO was included as a control. The assay plate was set up as follows with each well in duplicate: 81 μL assay buffer+10 μL ENPP1 inhibitor or DMSO+5 μL Substrate+4 μL Enzyme. Both the enzyme and substrate were added to opposite sides of the well to ensure that there was no interaction until all wells had both components. The plate was then centrifuged gently for 10 seconds, followed by an incubation at 37° C. for 45 minutes.
IC50 values are determined using GraphPad Prism 5 software. The data were entered as an X-Y plot into the software as percent inhibition for each concentration of the drug. The concentration values of the drug were log transformed and the nonlinear regression was carried out using the “sigmoidal dose-response (variable slope)” option within the GraphPad software to model the data and calculate IC50 values.

Row | Molecule | IC50
1 | COc1cc2ncnc(N3CCC(CCNS(N)(=O)=O)CC3)c2cc1OP(=O)(O)O [Compound I-03, sodium 7-methoxy-4-(4-(2-(sulfamoylamino)ethyl)piperidin-1-yl)quinazolin-6-yl phosphate] | 2870 nM
2 | N-(2-(1-(6,7-dimethoxyquinazolin-4-yl)piperidin-4-yl)propyl)sulfonamide urea [Compound I-01] | 2.79 nM
3 | COc1cc2ncnc(N3CCC(N(C4CC4)S(N)(=O)=O)CC3)c2cc1OC [Compound I-30] | 5610 nM
4 | CCC(CNS(N)(=O)=O)C1CCN(c2ncnc3cc(OC)c(OC)cc23)CC1 (centres unmarked) [Compound I-25, N—(N-(2-(1-(6,7-dimethoxyquinazolin-4-yl)piperidin-4-yl)butyl)sulfuricdiamide formate salt] | 5.05 nM
5 | COCOc1cc2c(N3CCC(C4(CNS(N)(=O)=O)CC4)CC3)ncnc2cc1OC [Compound I-35, N-((1-(1-(7-methoxy-6-(methoxymethoxy)quinazolin-4-yl)piperidin-4-yl)cyclopropyl)methyl)sulfuricdiamide] | 49.2 nM
6 | COCOc1cc2c(N3CCC(C(C)(C)CNS(N)(=O)=O)CC3)ncnc2cc1OC [Compound I-36, N-(2-(1-(7-methoxy-6-(methoxymethoxy)quinazolin-4-yl)piperidin-4-yl)-2-methylpropyl)sulfuricdiamide] | 52.6 nM
7 | COc1cc2nccc(N3CCN(CCNS(N)(=O)=O)[C@H](C)C3)c2cc1OC [Compound I-21, (R)—N-(2-(4-(6,7-dimethoxyquinolin-4-yl)-2-methylpiperazin-1-yl)ethyl)aminosulfonamide formate salt] | 344 nM
8 | COc1cc2ncnc(N3CCC(NS(N)(=O)=O)CC3)c2cc1OC [Compound I-29, N—(N-(1-(6,7-dimethoxyquinazolin-4-yl)piperidin-4-yl)sulfuricdiamide formate salt] | 420 nM
9 | COCOc1cc2c(N3CCN(C4(CNS(N)(=O)=O)CC4)CC3)ncnc2cc1OC [Compound I-33, N-((1-(4-(7-methoxy-6-(methoxymethoxy)quinazolin-4-yl)piperazin-1-yl)cyclopropyl)methyl)sulfuricdiamide] | 158 nM
10 | COc1cc2nccc(N3CCC(C4CCCN(S(N)(=O)=O)C4)CC3)c2cc1OC (centres unmarked) [Compound I-17, 6,7-dimethoxy-4-(1-(aminosulfonyl)-[3,4′-bipiperidin]-1′-yl)quinoline formate salt] | 75.8 nM
11 | COc1cc2nccc(N3CCC(N(C4CC4)S(N)(=O)=O)CC3)c2cc1OC [Compound I-24, N—(N-cyclopropyl-N-(1-(6,7-dimethoxyquinolin-4-yl)piperidin-4-yl)sulfuricdiamide formate salt] | 953 nM
12 | COc1cc2ncnc(N3CCC(C4(CNS(N)(=O)=O)CC4)CC3)c2cc1OC [Compound I-27, N—(N-((1-(1-(6,7-dimethoxyquinazolin-4-yl)piperidin-4-yl)cyclopropyl)methyl)sulfuricdiamide formate salt] | 11.5 nM
13 | COc1cc2ncnc(N3CCN(C4(CNS(N)(=O)=O)CC4)CC3)c2cc1OC [Compound I-32, N-((1-(4-(6,7-dimethoxyquinazolin-4-yl)piperazin-1-yl)cyclopropyl)methyl)sulfuricdiamide] | 55.6 nM
14 | COc1cc2nccc(N3CCC(C(=O)NC4(C#N)CC4)CC3)c2cc1OC [Compound I-18, N-(1-cyanocyclopropyl)-1-(6,7-dimethoxyquinolin-4-yl)piperidine-4-carboxamide] | > 10000 nM
15 | COc1cc2nccc(N3CCN(C4(CNS(N)(=O)=O)CC4)CC3)c2cc1OC [Compound I-31, N-((1-(4-(6,7-dimethoxyquinolin-4-yl)piperazin-1-yl)cyclopropyl)methyl)sulfuricdiamide] | 23.7 nM
16 | COc1cc2ncnc(N3CCC(C(C)(C)CNS(N)(=O)=O)CC3)c2cc1OC [Compound I-26, N-(2-(1-(6,7-dimethoxyquinazolin-4-yl)piperidin-4-yl)-2-methylpropyl)sulfuricdiamide formate salt] | 2.39 nM
17 | COc1cc2ncnc(N3CCN(C4(CNS(N)(=O)=O)CC4)CC3)c2cc1OCF [Compound I-34, N-((1-(4-(6-(fluoromethoxy)-7-methoxyquinazolin-4-yl)piperazin-1-yl)cyclopropyl)methyl)sulfuricdiamide] | 133 nM
18 | COc1cc2nccc(N3CCC(C4(CNS(N)(=O)=O)CC4)CC3)c2cc1OCF [Compound I-37, N-((1-(1-(6-(fluoromethoxy)-7-methoxyquinolin-4-yl)piperidin-4-yl)cyclopropyl)methyl)sulfuricdiamide] | 1.09 nM

Next, values leading:

Row | IC50 | Molecule
19 | 35.2 nM | COc1cc2nccc(N3CCC(C(C)(C)CNS(N)(=O)=O)CC3)c2cc1OC [Compound I-14, N-(2-(1-(6,7-dimethoxyquinolin-4-yl)piperidin-4-yl)-2-methylpropyl)sulfuricdiamide hydro chloride salt]
20 | 1880 nM | COc1cc2nccc(N3CCC(C(C)CNS(N)(=O)=O)CC3)c2cc1O (centres unmarked) [Compound I-09, N—(N-(2-(1-(6-hydroxy-7-methoxyquinolin-4-yl)piperidin-4-yl)propyl)sulfuricdiamide formate salt]
21 | 224 nM | COc1ccc2nccc(N3CCC(C(C)CNS(N)(=O)=O)CC3)c2c1 (centres unmarked) [Compound I-08, N-(2-(1-(6-methoxyquinolin-4-yl)piperidin-4-yl)propyl)aminosulfonamide]
22 | 3810 nM | COc1cc2nccc(N3CCC(C(C)CNS(C)(=O)=O)CC3)c2cc1OC (centres unmarked) [Compound I-19, N-(2-(1-(6,7-dimethoxyquinolin-4-yl)piperidin-4-yl)propyl)methanesulfonamide]
23 | 4490 nM | COc1cc2nccc(N3CCC(C(C)CNS(N)(=O)=O)CC3)c2cc1OCCO (centres unmarked) [Compound I-11, N-(2-(1-(6-(2-hydroxyethoxy)-7-methoxyquinolin-4-yl)piperidin-4-yl)propyl)aminosulfonamide formate salt]
24 | 26.2 nM | COCOc1cc2c(N3CCC(C(C)CNS(N)(=O)=O)CC3)ncnc2cc1OC (centres unmarked) [Compound I-28]
25 | 250 nM | COc1ccc2c(N3CCC(C(C)CNS(N)(=O)=O)CC3)ccnc2c1 (centres unmarked) [Compound I-07, N-(2-(1-(7-methoxyquinolin-4-yl)piperidin-4-yl)propyl)aminosulfonamide]
26 | 409 nM | COc1cc2nccc(N3CCC(C(C)CN(C4CC4)S(N)(=O)=O)CC3)c2cc1OC (centres unmarked) [Compound I-16, N-cyclopropyl-N-(2-(1-(6,7-dimethoxyquinolin-4-yl)piperidin-4-yl)propyl)aminosulfonamide formate salt]
27 | 156 nM | COCCOc1cc2c(N3CCC(C(C)CNS(N)(=O)=O)CC3)ccnc2cc1OC (centres unmarked) [Compound I-10, N-(2-(1-(7-methoxy-6-(2-methoxyethoxy)quinolin-4-yl)piperidin-4-yl)propyl)aninosulfonamide formate salt]
28 | 897 nM | COc1cc2nccc(N3CCC(NS(N)(=O)=O)CC3)c2cc1OC [Compound I-23, N—(N-(1-(6,7-dimethoxyquinolin-4-yl)piperidin-4-yl)sulfuricdiamide formate salt]
29 | 14 nM | COc1cc2nccc(N3CCN(C(C)CNS(N)(=O)=O)CC3)c2cc1OC (centres unmarked) [Compound I-20, N-(2-(4-(6,7-dimethoxyquinolin-4-yl)piperazin-1-yl)propyl)aminosulfonamide formate salt]
30 | 9.09 nM | COc1cc2nccc(N3CCC(C4(CNS(N)(=O)=O)CC4)CC3)c2cc1OC [Compound I-22]
31 | 3480 nM | CNS(=O)(=O)NCC(C)C1CCN(c2ccnc3cc(OC)c(OC)cc23)CC1 (centres unmarked) [Compound I-15, N-(2-(1-(6,7-dimethoxyquinolin-4-yl)piperidin-4-yl)propyl)Methyaminosulfonamide]

These molecules were tested against T1, ENPP1 protein (assay: Thermal Shift Binding Assay). Conditions: 1 μg of ENPP1 protein incubated with 100 μM of drug for 5 minutes.
Procedure: Thermal Shift Binding Assay.
The Thermal Shift Assays were implemented to study thermal stabilization of ENPP1 proteins upon ENPP1 inhibitor or ligand binding. These assays were used extensively on purified ENPP1 protein. In a 384-well plate, 1 μg of ENPP1 protein was incubated with 100 μM of the corresponding drug for 5 minutes. Each well was exposed to increasing temperatures to determine an unfolding temperature of the protein. […] 2′3′ cGAMP was used as a positive control, as it is a substrate of ENPP1.

Row | Molecule | Thermal Shift (Δ TmD)
32 | N-(2-(1-(6,7-dimethoxyquinazolin-4-yl)piperidin-4-yl)propyl)sulfonamide urea [Compound I-01] | 5.5
